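Five concentrations, 48 hours, 96-well plates. The concentration for 50% growth inhibition is given as GI50. TGI marks complete inhibition of growth.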
Assays:
Experiment in all cases: NCI-60 cell line screen, 48 h
[1] = tested on: NCI-H226 lung
[2] = tested on: SNB-75 CNS
[3] = tested on: KM12 colon
[4] = tested on: MCF7 breast
[5] = tested on: K-562 leukemia
[6] = tested on: SK-MEL-5 melanoma
[7] = tested on: HS 578T breast
[8] = tested on: HCC-2998 colon
[9] = tested on: SNB-19 CNS
[10] = tested on: HCT-15 colon

Row | Structure (SMILES) | TGI [1] | TGI [2] | TGI [3] | TGI [4] | TGI [5] | TGI [6] | TGI [7] | TGI [8] | TGI [9] | TGI [10] | GI50 [1] | GI50 [2] | GI50 [3] | GI50 [4] | GI50 [5] | GI50 [6] | GI50 [7] | GI50 [8] | GI50 [9] | GI50 [10]
1 | CC[N+]1(C)CCC(O)(/C=C/c2ccccc2)C(C(=O)/C=C/c2ccccc2)C1 (stereo not given) | 29.7 µM | 34.7 µM | 10.2 µM | > 23.7 µM | 10.8 µM | 32.7 µM | > 100 µM | 30.8 µM | 29.7 µM | 15.5 µM |  |  |  |  |  |  |  |  |  | 
2 | CCN(CC)CCC(CNc1c2ccc(Cl)cc2nc2ccc(OC)cc12)c1ccccc1 (stereo not given) | 4.99 µM | 2.83 µM | 4.47 µM | 1.88 µM | 1.28 µM | 3.11 µM | 5.44 µM | 2.39 µM | 4.2 µM | 4.33 µM | 1.43 µM | 1.49 µM | 0.996 µM | 0.505 µM | 0.337 µM | 1.7 µM | 1.95 µM | 1.09 µM | 1.36 µM | 0.902 µM
3 | N#Cc1c(-c2ccc(Cl)cc2)n([O-])c2ccccc2[n+]1=O | 46.7 µM | 39.5 µM | 28.7 µM | > 100 µM | 4.01 µM | 31.7 µM | 53.8 µM | 26 µM | 48.6 µM | 37.5 µM | 18.1 µM | 21.4 µM | 14.3 µM | 15.9 µM | 2 µM | 15.9 µM | 24.6 µM | 13.3 µM | 20.6 µM | 13.7 µM
4 | O=C(NC(c1ccccc1)C(O)C(=O)OCc1ccc2c(c1)C(=O)c1ccccc1C2=O)c1ccccc1 (stereo not given) | 18.7 µM | 24.6 µM | > 97.4 µM | > 100 µM | > 100 µM | 40.3 µM | > 100 µM | > 100 µM | 18.3 µM | > 100 µM |  |  |  |  |  |  |  |  |  | 
5 | CCOC(=O)C(Cc1ccc(N(CCCl)CCCl)cc1)NC(=O)C(CC(C)C)NC(C)=O (stereo not given) | 10.7 µM | 8.4 µM | 18.8 µM | 15.4 µM | 7.96 µM | 9.82 µM | 7.92 µM | 5.95 µM | 16.7 µM | > 27.8 µM | 3.79 µM | 1.94 µM | 4.35 µM | 0.699 µM | 1.19 µM | 2.45 µM | 2.55 µM | 1.82 µM | 3.55 µM | 2.22 µM
6 | Cc1ccc(S(=O)(=O)NC(CCCCN)C(=O)CCl)cc1 (stereo not given) | > 100 µM | > 100 µM | > 100 µM | > 100 µM | > 100 µM | > 100 µM | > 100 µM | > 100 µM | > 100 µM | > 100 µM | 79.9 µM | > 100 µM | 55.9 µM | 57.9 µM | 38.7 µM | 47.8 µM | 40.9 µM | 37.4 µM | 47.8 µM | 72.4 µM
7 | C#Cc1cccc(NC(=O)Nc2cccc(NC(=O)CCl)c2)c1 | 75.2 µM | > 82.5 µM | > 82.5 µM | > 82.5 µM | > 82.5 µM | 36.2 µM | > 82.5 µM | > 82.5 µM | > 82.5 µM | 26.7 µM | 21.6 µM | 8.67 µM | 58.6 µM | 21.7 µM | 22.8 µM | 15.7 µM | 21.2 µM | > 82.5 µM | > 82.5 µM | 11.8 µM
8 | CC(C)(O)C1CC(=O)C(C)(C2C(O)CC3(C)C4CC=C5C(CCC(O)C5(C)C)C4(C)C(=O)CC23C)O1 (stereo not given) | > 100 µM | > 100 µM | > 100 µM | > 100 µM | > 100 µM | > 100 µM | > 100 µM | > 100 µM | > 100 µM | > 100 µM |  |  |  |  |  |  |  |  |  | 
9 | Cn1cc(C2=C(c3cn(CCCSC(=N)N)c4ccccc34)C(=O)NC2=O)c2ccccc21 | 7.29 µM | 4.33 µM | 5.97 µM | 3 µM | 6.78 µM | 4.27 µM | 9.96 µM | 8.89 µM | 8.99 µM | 11.1 µM | 1.49 µM | 0.674 µM | 2.07 µM | 0.799 µM | 2.67 µM | 1.56 µM | 1.91 µM | 3.05 µM | 1.4 µM | 4.71 µM
10 | C/C=C\C(C)=C/C(C)C(=O)CC(O)CC1CC(=O)NC(=O)C1 (stereo not given) | > 100 µM | 68.2 µM | > 100 µM | > 100 µM | > 100 µM | > 100 µM | 62.5 µM | > 100 µM | > 90.6 µM | > 100 µM |  |  |  |  |  |  |  |  |  | 
11 | N#CC1=C(N)Oc2c(ccc3ccccc23)C1c1ccccc1Cl (stereo not given) | 13.2 µM | 2.95 µM | 7.9 µM | 15.2 µM | > 43.5 µM | 4.87 µM | 2.94 µM | 11.6 µM | 23.1 µM | 11.4 µM | 1.52 µM | 0.163 µM | 0.227 µM | 0.383 µM | 0.0796 µM | 0.487 µM | 0.226 µM | 0.429 µM | 0.59 µM | 0.183 µM

— PubChem BioAssay (NCI)
